Experimental data published in patent US20200345006A1, “METHODS OF REDUCING NEMATODE INFECTION IN PLANTS” (The University of North Carolina at Charlotte, priority 2019, published 2020).

Legend:
[1] = tested on: H. glycines second-stage nematodes (J2), races 2 (HG type 1.2.5.7) and 5 (HG type 2.5.7); assay: whole plant or invertebrate; conditions: for nematocidal activity against races 2 and 5: 24 hours incubation, 0.5 and 1.0 mg/ml, overall statement; for mortality at 500 µg/mL / mortality at 1000 µg/mL: Heterodera glycines, 24 h, read-out: J2 mortality
Experimental: Determination of the nematocidal activity of phenolic compounds was conducted as previously described. Briefly, approximately 400 freshly hatched J2s in 900 μl of water were added to each well of a 24-well Microtest™ tissue culture plate, and 100 μl of the compound test solution was added at concentrations of 5 mg/ml and 10 mg/ml. Therefore, the final concentration of each compound in each suspension is 0.5 mg/ml and 1.0 mg/ml. Control samples received 100 μl of water. Three replicates per concentration were used. The plate was covered with the original solid lid and wrapped with Parafilm®, and samples were kept at 27° C. in an incubator. After 24 hours of incubation, dead and alive J2 nematodes were counted using a stereo microscope Leica M165 FC (×40) to evaluate mortality rates. J2 mortality can be estimated according to the mean percentage of dead J2 in the total number of J2 (alive and dead). Nematodes are considered dead when no movement was observed during 3 seconds of observation. The compounds 3,4-dihydroxybenzoic acid and 4-hydroxybenzaldehyde are commercially available at Sigma-Aldrich, USA.

[2] = tested on: root-knot nematode (Meloidogyne incognita); conditions: known from prior reports; cited from earlier work
nematode = conditions: general statement; cited from earlier work

O=Cc1ccc(O)cc1 [4-hydroxybenzaldehyde]
nematocidal activity against races 2 and 5 [1]: demonstrated nematocidal activity
mortality at 500 µg/mL [1]: 68%
mortality at 1000 µg/mL [1]: 96%

O=C(O)c1ccc(O)c(O)c1 [3,4-dihydroxybenzoic acid]
nematocidal activity against races 2 and 5 [1]: demonstrated nematocidal activity
mortality at 500 µg/mL [1]: 19%
mortality at 1000 µg/mL [1]: 30%
nematocidal activity against root-knot nematode [2]: showing nematocidal activity

O=C(O)c1ccccc1O [SA, salicylic acid]
direct nematocidal activity (nematode): no direct nematocidal activity
